From patent US11993599B2, “Therapeutic compounds” (Genentech, Inc., priority 2021, dated 2024)

Tests used:
BRG1 = molecular target: T1, BRG1 (Homo sapiens, UniProt P51532); experiment: Immunofluorescence assay for BRG1 degradation in SW1573 cells; assay type: cell-based; conditions: 20 hours incubation; for DC50: immunofluorescence mean nuclear signal, read-out: BRG1 IF Degradation IC50; for Dmax: SW1573, 20 h, read-out: BRG1 IF Degradation Sinf (%)
T1 construct: either BRM primary antibody (Cell signaling Cat #11966) or BRG primary antibody (Abcam, ab 110641); endogenous in cells; host or cells: SW1573
Method in brief: (§1)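 SW1573 cells treated with compound for 20 h, then fixed, permeabilized and immunostained for BRM or BRG1 with Hoechst nuclear counterstain. Mean nuclear intensity per cell quantified by high-content imaging; data normalized to a reference degrader control, with floating-maximum curve fits giving IC50 and Dmax.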

BRM = BRM (Homo sapiens, UniProt P51531); experiment: Immunofluorescence assay for BRM degradation in SW1573 cells; assay type: cell-based; parameters: treated overnight at 4° C. with either BRM primary antibody (Cell signaling Cat #11966) or BRG primary antibody; endogenous in cells; host or cells: SW1573; conditions: 20 hours incubation; for DC50: immunofluorescence mean nuclear signal, read-out: BRM IF Degradation IC50; for BRM IF Degradation Sinf (%): normalized to a known degrader control
Method in brief: as §1

[1] = normalized to a known degrader control

Chain of BRM (P51531 whole entry): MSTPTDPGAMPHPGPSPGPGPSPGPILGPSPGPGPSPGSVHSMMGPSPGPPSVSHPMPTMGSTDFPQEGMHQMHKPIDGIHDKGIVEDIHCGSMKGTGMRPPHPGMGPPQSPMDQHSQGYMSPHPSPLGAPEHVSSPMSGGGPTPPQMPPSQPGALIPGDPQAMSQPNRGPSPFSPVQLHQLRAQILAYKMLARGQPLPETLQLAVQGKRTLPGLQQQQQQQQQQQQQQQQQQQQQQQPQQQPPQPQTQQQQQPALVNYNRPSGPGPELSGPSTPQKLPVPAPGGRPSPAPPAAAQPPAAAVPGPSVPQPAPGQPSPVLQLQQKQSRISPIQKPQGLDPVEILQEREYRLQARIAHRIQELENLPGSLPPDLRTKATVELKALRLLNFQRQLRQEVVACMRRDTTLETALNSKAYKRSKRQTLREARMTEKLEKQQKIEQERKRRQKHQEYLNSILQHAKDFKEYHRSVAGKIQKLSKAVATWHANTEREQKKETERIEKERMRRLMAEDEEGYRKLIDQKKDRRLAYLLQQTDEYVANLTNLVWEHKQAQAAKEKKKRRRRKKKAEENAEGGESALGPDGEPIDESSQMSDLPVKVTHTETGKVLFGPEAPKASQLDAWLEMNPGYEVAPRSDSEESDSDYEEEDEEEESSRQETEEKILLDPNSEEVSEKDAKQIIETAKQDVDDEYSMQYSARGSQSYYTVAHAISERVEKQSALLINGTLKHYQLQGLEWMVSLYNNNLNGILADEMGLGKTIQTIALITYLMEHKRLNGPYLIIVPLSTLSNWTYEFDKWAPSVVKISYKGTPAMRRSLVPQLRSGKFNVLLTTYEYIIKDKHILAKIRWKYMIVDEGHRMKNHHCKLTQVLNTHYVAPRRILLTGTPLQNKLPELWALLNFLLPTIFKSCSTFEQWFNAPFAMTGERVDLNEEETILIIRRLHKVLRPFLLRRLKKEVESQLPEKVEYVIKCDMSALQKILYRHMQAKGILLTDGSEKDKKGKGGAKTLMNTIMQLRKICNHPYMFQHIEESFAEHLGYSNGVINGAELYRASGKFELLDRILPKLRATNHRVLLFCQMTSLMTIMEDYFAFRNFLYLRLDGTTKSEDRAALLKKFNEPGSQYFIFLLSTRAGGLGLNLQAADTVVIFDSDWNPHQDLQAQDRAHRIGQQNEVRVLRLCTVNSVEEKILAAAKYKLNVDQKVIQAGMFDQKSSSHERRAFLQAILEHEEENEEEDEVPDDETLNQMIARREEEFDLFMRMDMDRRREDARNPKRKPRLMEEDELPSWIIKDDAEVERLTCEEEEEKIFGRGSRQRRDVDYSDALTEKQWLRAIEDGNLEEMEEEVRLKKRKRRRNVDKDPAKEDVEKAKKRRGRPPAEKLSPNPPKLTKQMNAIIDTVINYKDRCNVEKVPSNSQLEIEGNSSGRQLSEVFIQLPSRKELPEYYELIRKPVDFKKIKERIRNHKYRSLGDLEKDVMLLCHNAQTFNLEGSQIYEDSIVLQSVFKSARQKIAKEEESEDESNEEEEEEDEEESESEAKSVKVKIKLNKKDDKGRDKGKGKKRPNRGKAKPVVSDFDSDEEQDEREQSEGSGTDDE
T1 sequence (P51532 whole entry): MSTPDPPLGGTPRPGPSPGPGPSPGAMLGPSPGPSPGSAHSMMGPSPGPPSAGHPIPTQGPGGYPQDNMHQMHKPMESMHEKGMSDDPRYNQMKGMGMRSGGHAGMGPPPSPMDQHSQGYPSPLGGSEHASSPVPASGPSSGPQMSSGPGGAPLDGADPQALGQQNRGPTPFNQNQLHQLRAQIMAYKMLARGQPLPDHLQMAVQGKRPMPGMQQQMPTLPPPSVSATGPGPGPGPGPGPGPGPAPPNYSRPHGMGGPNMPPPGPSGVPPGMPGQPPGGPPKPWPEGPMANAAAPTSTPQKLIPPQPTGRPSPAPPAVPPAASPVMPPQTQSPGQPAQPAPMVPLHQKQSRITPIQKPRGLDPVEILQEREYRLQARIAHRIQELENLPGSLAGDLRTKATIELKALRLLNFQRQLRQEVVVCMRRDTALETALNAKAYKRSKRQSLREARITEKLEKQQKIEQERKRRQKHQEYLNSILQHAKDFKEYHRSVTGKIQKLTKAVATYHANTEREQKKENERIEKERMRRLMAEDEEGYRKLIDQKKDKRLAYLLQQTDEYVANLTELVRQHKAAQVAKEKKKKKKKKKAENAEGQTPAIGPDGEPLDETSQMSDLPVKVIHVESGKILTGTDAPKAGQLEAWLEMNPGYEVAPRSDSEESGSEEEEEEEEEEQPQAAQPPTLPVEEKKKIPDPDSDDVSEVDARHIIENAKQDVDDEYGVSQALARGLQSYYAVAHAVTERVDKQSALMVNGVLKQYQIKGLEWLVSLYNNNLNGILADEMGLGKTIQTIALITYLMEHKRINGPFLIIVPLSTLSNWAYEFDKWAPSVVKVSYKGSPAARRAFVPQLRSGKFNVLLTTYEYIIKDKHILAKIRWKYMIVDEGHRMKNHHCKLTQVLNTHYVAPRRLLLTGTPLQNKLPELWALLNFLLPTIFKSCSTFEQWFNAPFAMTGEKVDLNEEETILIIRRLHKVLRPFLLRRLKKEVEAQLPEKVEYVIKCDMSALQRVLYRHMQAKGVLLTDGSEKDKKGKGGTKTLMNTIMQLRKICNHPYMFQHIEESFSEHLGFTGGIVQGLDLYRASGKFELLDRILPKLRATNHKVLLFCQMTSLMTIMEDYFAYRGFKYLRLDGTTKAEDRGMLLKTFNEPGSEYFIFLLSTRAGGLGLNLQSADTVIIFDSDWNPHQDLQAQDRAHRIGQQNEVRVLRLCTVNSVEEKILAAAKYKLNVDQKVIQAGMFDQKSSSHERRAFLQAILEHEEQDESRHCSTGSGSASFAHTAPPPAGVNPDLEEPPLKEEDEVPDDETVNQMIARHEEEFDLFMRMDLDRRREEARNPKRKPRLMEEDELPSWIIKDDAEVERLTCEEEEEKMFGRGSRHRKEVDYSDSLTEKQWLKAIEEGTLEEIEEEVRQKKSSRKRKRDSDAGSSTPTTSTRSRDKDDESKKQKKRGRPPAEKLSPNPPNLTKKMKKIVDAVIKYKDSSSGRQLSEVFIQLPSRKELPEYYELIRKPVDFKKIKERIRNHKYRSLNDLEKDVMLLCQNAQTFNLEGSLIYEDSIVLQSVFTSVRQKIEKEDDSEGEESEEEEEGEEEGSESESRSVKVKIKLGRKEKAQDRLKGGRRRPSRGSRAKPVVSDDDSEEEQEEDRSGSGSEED

Structure (SMILES) | DC50 (BRG1) [µM] | DC50 (BRM) [µM] | BRM IF Degradation Sinf (%) (BRM) | Dmax (BRG1; [1]) [%] | BRG1 IF Degradation Sinf (%) (BRG1; [1])
Nc1nnc(-c2ccccc2O)cc1N1CC2CCC(C1)N2c1ccnc(C#CCN2CCc3nccn3CC2)c1 [Compound 203, 2-[6-amino-5-[8-[2-[3-(5,6,8,9-tetrahydroimidazo[l,2-d][1,4]diazepin-7-yl)prop-1-ynyl]-4-pyridyl]-3,8-diazabicyclo[3.2.1]octan-3-yl]pyridazin-3-yl]phenol] | > 0.1 | 0.01 to 0.1 | E (E indicates −30%-−70%) |  | 
CC[C@@H]1COCCN1CC#Cc1cc(N2C3CCC2CN(c2cc(-c4ccccc4O)nnc2N)C3)ccn1 [Compound 48, 2-[6-amino-5-[8-[2-[3-[(3R)-3-ethylmorpholin-4-yl]prop-1-ynyl]-4-pyridyl]-3,8-diazabicyclo[3.2.1]octan-3-yl]pyridazin-3-yl]phenol] | 0.01 to 0.1 | 0.01 to 0.1 | E (E indicates −30%-−70%) | 0 to 30 | 
Nc1nnc(-c2ccccc2O)cc1N1CC2CCC(C1)N2c1ccnc(C#CCN2CC3(CCCO3)C2)c1 [Compound 178, 2-[6-amino-5-[8-[2-[3-(5-oxa-2-azaspiro[3.4]octan-2-yl)prop-1-ynyl]-4-pyridyl]-3,8-diazabicyclo[3.2.1]octan-3-yl]pyridazin-3-yl]phenol] | < 0.01 | 0.01 to 0.1 | F (F indicates −71%-−120%) | 30 to 70 | 
CN(CC#Cc1cc(N2C3CCC2CN(c2cc(-c4ccccc4O)nnc2N)C3)ccn1)CC(=O)N1CCOCC1 [Compound 85, 2-[3-[4-[3-[3-amino-6-(2-hydroxyphenyl)pyridazin-4-yl]-3,8-diazabicyclo[3.2.1]octan-8-yl]-2-pyridyl]prop-2-ynyl-methyl-amino]-1-morpholino-ethanone] | > 0.1 | > 0.1 | E (E indicates −30%-−70%) |  | 
Nc1nnc(-c2ccccc2O)cc1N1CC2CCC(C1)N2c1ccnc(C#CCN2CC(c3ccncn3)C2)c1 [Compound 231, 2-[6-amino-5-[8-[2-[3-(3-pyrimidin-4-ylazetidin-1-yl)prop-1-ynyl]-4-pyridyl]-3,8-diazabicyclo[3.2.1]octan-3-yl]pyridazin-3-yl]phenol] | < 0.01 | < 0.01 | E (E indicates −30%-−70%) | 30 to 70 | 
CN1C[C@@H]2C[C@H]1CN2CC#Cc1cc(N2C3CCC2CN(c2cc(-c4ccccc4O)nnc2N)C3)ccn1 [Compound 164, 2-[6-amino-5-[8-[2-[3-[(1S,4S)-5-methyl-2,5-diazabicyclo[2.2.1]heptan-2-yl]prop-1-ynyl]-4-pyridyl]-3,8-diazabicyclo[3.2.1]octan-3-yl]pyridazin-3-yl]phenol] | > 0.1 | 0.01 to 0.1 | E (E indicates −30%-−70%) | 0 to 30 | 
CC1CCN1CC#Cc1cc(N2C3CCC2CN(c2cc(-c4ccccc4O)nnc2N)C3)ccn1 (centres unmarked) [Compound 184, 2-[6-amino-5-[8-[2-[3-(2-methylazetidin-1-yl)prop-1-ynyl]-4-pyridyl]-3,8-diazabicyclo[3.2.1]octan-3-yl]pyridazin-3-yl]phenol] | < 0.01 | < 0.01 | E (E indicates −30%-−70%) | 30 to 70 | 
Nc1nnc(-c2ccccc2O)cc1N1CC2CCC(C1)N2c1ccnc(C#CCN2CC(F)(F)C2)c1 [Compound 223, 2-[6-amino-5-[8-[2-[3-(3,3-difluoroazetidin-1-yl)prop-1-ynyl]-4-pyridyl]-3,8-diazabicyclo[3.2.1]octan-3-yl]pyridazin-3-yl]phenol] | < 0.01 | 0.01 to 0.1 | E (E indicates −30%-−70%) | 30 to 70 | 
Nc1nnc(-c2ccccc2O)cc1N1CC2CCC(C1)N2c1ccnc(C#CCN2C[C@H]3CCO[C@H]3C2)c1 [Compound 113, 2-[5-[8-[2-[3-[(3aR,6aR)-2,3,3a,4,6,6a-hexahydrofuro[2,3-c]pyrrol-5-yl]prop-1-ynyl]-4-pyridyl]-3,8-diazabicyclo[3.2.1]octan-3-yl]-6-amino-pyridazin-3-yl]phenol] | < 0.01 | 0.01 to 0.1 | E (E indicates −30%-−70%) | 0 to 30 | 
C[C@H]1CCN(CC#Cc2cc(N3C4CCC3CN(c3cc(-c5ccccc5O)nnc3N)C4)ccn2)C1 [Compound 75, 2-(6-amino-5-(8-(2-(3-((S)-3-methylpyrrolidin-1-yl)prop-1-yn-1-yl)pyridin-4-yl)-3,8-diazabicyclo[3.2.1]octan-3-yl)pyridazin-3-yl)phenol] | < 0.01 | < 0.01 | E (E indicates −30%-−70%) | 30 to 70 | 
CNC(=O)C1CCCCN1CC#Cc1cc(N2C3CCC2CN(c2cc(-c4ccccc4O)nnc2N)C3)ccn1 (centres unmarked) [Compound 96, 1-[3-[4-[3-[3-amino-6-(2-hydroxyphenyl)pyridazin-4-yl]-3,8-diazabicyclo[3.2.1]octan-8-yl]-2-pyridyl]prop-2-ynyl]-N-methyl-piperidine-2-carboxamide] | 0.01 to 0.1 | > 0.1 | E (E indicates −30%-−70%) | 0 to 30 | 
Nc1nnc(-c2ccccc2O)cc1N1CC2CCC(C1)N2c1ccnc(C#CCN2CC3(CCCOC3)C2)c1 [Compound 175, 2-[6-amino-5-[8-[2-[3-(6-oxa-2-azaspiro[3.5]nonan-2-yl)prop-1-ynyl]-4-pyridyl]-3,8-diazabicyclo[3.2.1]octan-3-yl]pyridazin-3-yl]phenol] | < 0.01 | < 0.01 | E (E indicates −30%-−70%) | 30 to 70 | 
Nc1nnc(-c2ccccc2O)cc1N1CC2CCC(C1)N2c1cnnc(C#CCN2CCCCCC2)c1 [Compound 246, 2-(6-amino-5-(8-(6-(3-(azepan-1-yl)prop-1-yn-1-yl)pyridazin-4-yl)-3,8-diazabicyclo[3.2.1]octan-3-yl)pyridazin-3-yl)phenol] | < 0.01 | 0.01 to 0.1 | F (F indicates −71%-−120%) | 71 to 120 | 
N#CCC1CN(CC#Cc2cc(N3C4CCC3CN(c3cc(-c5ccccc5O)nnc3N)C4)ccn2)C1 [Compound 152, 2-[1-[3-[4-[3-[3-amino-6-(2-hydroxyphenyl)pyridazin-4-yl]-3,8-diazabicyclo[3.2.1]octan-8-yl]-2-pyridyl]prop-2-ynyl]azetidin-3-yl]acetonitrile] | < 0.01 | < 0.01 | E (E indicates −30%-−70%) | 30 to 70 | 
N#Cc1ccc(C2CN(CC#Cc3cc(N4C5CCC4CN(c4cc(-c6ccccc6O)nnc4N)C5)ccn3)C2)cc1 [Compound 237, 4-[1-[3-[4-[3-[3-amino-6-(2-hydroxyphenyl)pyridazin-4-yl]-3,8-diazabicyclo[3.2.1]octan-8-yl]-2-pyridyl]prop-2-ynyl]azetidin-3-yl]benzonitrile] | 0.01 to 0.1 | 0.01 to 0.1 | E (E indicates −30%-−70%) | 30 to 70 | 
COC[C@@H]1CCN1CC#Cc1cc(N2C3CCC2CN(c2cc(-c4ccccc4O)nnc2N)C3)ccn1 [Compound 186, 2-[6-amino-5-[8-[2-[3-[(2S)-2-(methoxymethyl)azetidin-1-yl]prop-1-ynyl]-4-pyridyl]-3,8-diazabicyclo[3.2.1]octan-3-yl]pyridazin-3-yl]phenol] | 0.01 to 0.1 | < 0.01 | E (E indicates −30%-−70%) | 30 to 70 | 
Nc1nnc(-c2ccccc2O)cc1N1CC2CCC(C1)N2c1ccnc(C#CCN2CC3CC(C2)C3O)c1 (centres unmarked) [Compound 126, 3-[3-[4-[3-[3-amino-6-(2-hydroxyphenyl)pyridazin-4-yl]-3,8-diazabicyclo[3.2.1]octan-8-yl]-2-pyridyl]prop-2-ynyl]-3-azabicyclo[3.1.1]heptan-6-ol] | < 0.01 | < 0.01 | E (E indicates −30%-−70%) | 0 to 30 | 
COC(=O)C1CCN1CC#Cc1cc(N2C3CCC2CN(c2cc(-c4ccccc4O)nnc2N)C3)ccn1 (centres unmarked) [Compound 176, methyl 1-[3-[4-[3-[3-amino-6-(2-hydroxyphenyl)pyridazin-4-yl]-3,8-diazabicyclo[3.2.1]octan-8-yl]-2-pyridyl]prop-2-ynyl]azetidine-2-carboxylate] | > 0.1 | 0.01 to 0.1 | E (E indicates −30%-−70%) |  | 
Nc1nnc(-c2ccccc2O)cc1N1CC2CCC(C1)N2c1ccnc(C#CCN2CC(F)(C3CC3)C2)c1 [Compound 238, 2-[6-amino-5-[8-[2-[3-(3-cyclopropyl-3-fluoro-azetidin-1-yl)prop-1-ynyl]-4-pyridyl]-3,8-diazabicyclo[3.2.1]octan-3-yl]pyridazin-3-yl]phenol] | < 0.01 | 0.01 to 0.1 | E (E indicates −30%-−70%) | 30 to 70 | 
Nc1nnc(-c2ccccc2O)cc1N1CC2CCC(C1)N2c1ccnc(C#CCN2CC(O)C2)c1 [Compound 168, 1-[3-[4-[3-[3-amino-6-(2-hydroxyphenyl)pyridazin-4-yl]-3,8-diazabicyclo[3.2.1]octan-8-yl]-2-pyridyl]prop-2-ynyl]azetidin-3-ol] | 0.01 to 0.1 | 0.01 to 0.1 | F (F indicates −71%-−120%) |  | E (E indicates −30%-−70%)
